Reference: US20240208992A1, “MACROCYCLES AS CFTR MODULATORS” (Idorsia Pharmaceuticals Ltd, priority 2021, published 2024)

Target: human F508del-CFTR (Homo sapiens, UniProt P13569, DEL508-508)
Test: F508del-CFTR cell surface expression (corrector activity), DiscoveRx ß-galactosidase complementation chemiluminescence assay in recombinant U2OS cell line;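 also: U2OS cells co-expressing ProLink-tagged F508del-CFTR and a membrane-anchored enzyme acceptor, where more surface CFTR restores β-galactosidase activity measured by chemiluminescence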
Details: U2OS cell line, 16h compound incubation; for EC50: EC50, F508del-CFTR cell surface expression, geomean values; for Emax: U2OS, in relation to the Emax of the corrector lumacaftor (=100%), arithmetic mean values

Sequence of human F508del-CFTR (P13569 with tags, fused parts or gaps DEL508-508): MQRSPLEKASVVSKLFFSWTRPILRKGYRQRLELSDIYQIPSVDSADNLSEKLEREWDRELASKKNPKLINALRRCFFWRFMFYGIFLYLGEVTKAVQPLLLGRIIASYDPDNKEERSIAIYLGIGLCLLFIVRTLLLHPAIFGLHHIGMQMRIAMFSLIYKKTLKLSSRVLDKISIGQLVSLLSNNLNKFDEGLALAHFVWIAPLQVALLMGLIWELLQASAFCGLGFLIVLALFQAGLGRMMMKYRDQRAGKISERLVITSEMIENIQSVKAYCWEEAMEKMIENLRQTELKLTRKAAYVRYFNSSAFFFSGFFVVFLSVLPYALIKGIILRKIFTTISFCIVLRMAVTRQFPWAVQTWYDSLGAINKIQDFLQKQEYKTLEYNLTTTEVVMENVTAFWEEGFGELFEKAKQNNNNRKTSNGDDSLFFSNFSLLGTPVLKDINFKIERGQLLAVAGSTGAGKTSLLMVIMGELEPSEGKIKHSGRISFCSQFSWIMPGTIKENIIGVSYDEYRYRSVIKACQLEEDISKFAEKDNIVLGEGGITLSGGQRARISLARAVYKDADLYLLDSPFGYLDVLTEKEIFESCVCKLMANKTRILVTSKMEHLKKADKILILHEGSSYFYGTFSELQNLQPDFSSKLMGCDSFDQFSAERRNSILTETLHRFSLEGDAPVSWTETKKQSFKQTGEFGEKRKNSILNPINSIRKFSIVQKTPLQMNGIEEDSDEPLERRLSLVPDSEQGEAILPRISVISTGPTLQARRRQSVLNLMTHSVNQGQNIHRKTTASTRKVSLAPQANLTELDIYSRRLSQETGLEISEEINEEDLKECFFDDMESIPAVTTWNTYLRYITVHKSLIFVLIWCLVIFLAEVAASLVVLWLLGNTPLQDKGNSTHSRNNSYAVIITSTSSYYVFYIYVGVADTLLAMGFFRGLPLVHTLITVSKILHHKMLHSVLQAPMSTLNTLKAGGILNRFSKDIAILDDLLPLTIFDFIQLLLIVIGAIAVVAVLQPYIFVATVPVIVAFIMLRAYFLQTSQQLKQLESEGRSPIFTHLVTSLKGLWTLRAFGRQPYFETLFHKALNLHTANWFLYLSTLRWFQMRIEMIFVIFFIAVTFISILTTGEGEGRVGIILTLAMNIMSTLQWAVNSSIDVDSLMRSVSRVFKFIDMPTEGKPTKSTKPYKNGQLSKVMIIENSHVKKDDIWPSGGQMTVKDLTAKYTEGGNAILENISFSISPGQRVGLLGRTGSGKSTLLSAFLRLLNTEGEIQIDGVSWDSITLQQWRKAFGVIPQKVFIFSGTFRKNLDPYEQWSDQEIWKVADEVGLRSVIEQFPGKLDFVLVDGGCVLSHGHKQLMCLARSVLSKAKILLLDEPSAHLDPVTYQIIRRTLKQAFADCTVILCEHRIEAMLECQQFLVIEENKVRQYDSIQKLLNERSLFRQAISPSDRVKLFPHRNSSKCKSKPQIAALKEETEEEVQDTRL

EC50	Emax	Structure (SMILES)
873 nM	280%	CC(C)C[C@H]1C(=O)N2CCCC[C@@H]2C(=O)N[C@H](Cc2ccccc2)COc2cnc3ccccc3c2C(=O)N[C@H](C(=O)NCCc2cccc(-c3ncccn3)c2)CC(=O)N1C [Example 123, (9S,13S,19aR,22R)-22-benzyl-13-isobutyl-12-methyl-7,11,14,20-tetraoxo-N-(3-(pyrimidin-2-yl)phenethyl)-7,8,9,10,11,12,13,14,17,18,19,19a,20,21,22,23-hexadecahydro-16H-pyrido[2′,1′:6,7][1]oxa[4,7,10,14]tetraazacycloheptadecino[17,16-c]quinoline-9-carboxamide]
382 nM	347%	CC(C)C[C@H]1C(=O)N2CCCC[C@@H]2C(=O)N[C@H](Cc2ccccc2)COc2cnc3ccccc3c2C(=O)N[C@H](C(=O)NCCc2cnn(C3CC3)c2)CC(=O)N1C [Example 124, (9S,13S,19aR,22R)-22-benzyl-N-(2-(1-cyclopropyl-1H-pyrazol-4-yl)ethyl)-13-isobutyl-12-methyl-7,11,14,20-tetraoxo-7,8,9,10,11,12,13,14,17,18,19,19a,20,21,22,23-hexadecahydro-16H-pyrido[2′,1′:6,7][1]oxa[4,7,10,14]tetraazacycloheptadecino[17,16-c]quinoline-9-carboxamide]
271 nM	229%	Cc1cc(CCNC(=O)[C@@H]2CC(=O)N(C)[C@@H](CC(C)C)C(=O)N3CCCC[C@@H]3C(=O)N[C@H](Cc3ccccc3)COc3cnc4ccccc4c3C(=O)N2)ccc1-n1nccn1 [Example 125, (9S,13S,19aR,22R)-22-benzyl-13-isobutyl-12-methyl-N-(3-methyl-4-(2H-1,2,3-triazol-2-yl)phenethyl)-7,11,14,20-tetraoxo-7,8,9,10,11,12,13,14,17,18,19,19a,20,21,22,23-hexadecahydro-16H-pyrido[2′,1′:6,7][1]oxa[4,7,10,14]tetraazacycloheptadecino[17,16-c]quinoline-9-carboxamide]
261 nM	230%	CC(C)C[C@H]1C(=O)N2CCCC[C@@H]2C(=O)N[C@H](Cc2ccccc2)COc2cnc3ccccc3c2C(=O)N[C@H](C(=O)NCCc2cc(F)cc(F)c2)CC(=O)N1C [Example 126, (9S,13S,19aR,22R)-22-benzyl-N-(3,5-difluorophenethyl)-13-isobutyl-12-methyl-7,11,14,20-tetraoxo-7,8,9,10,11,12,13,14,17,18,19,19a,20,21,22,23-hexadecahydro-16H-pyrido[2′,1′:6,7][1]oxa[4,7,10,14]tetraazacycloheptadecino[17,16-c]quinoline-9-carboxamide]
107 nM	311%	CC(C)C[C@H]1C(=O)N2CCCC[C@@H]2C(=O)N[C@H](Cc2ccccc2)COc2cnc3ccccc3c2C(=O)N[C@H](C(=O)NCCc2nc(C3CC3)no2)CC(=O)N1C [Example 127, (9S,13S,19aR,22R)-22-benzyl-N-(2-(3-cyclopropyl-1,2,4-oxadiazol-5-yl)ethyl)-13-isobutyl-12-methyl-7,11,14,20-tetraoxo-7,8,9,10,11,12,13,14,17,18,19,19a,20,21,22,23-hexadecahydro-16H-pyrido[2′,1′:6,7][1]oxa[4,7,10,14]tetraazacycloheptadecino[17,16-c]quinoline-9-carboxamide]
190 nM	292%	CC(C)C[C@H]1C(=O)N2CCCC[C@@H]2C(=O)N[C@H](Cc2ccccc2)COc2cnc3ccccc3c2C(=O)N[C@H](C(=O)NCCc2noc(C3CCC3)n2)CC(=O)N1C [Example 128, (9S,13S,19aR,22R)-22-benzyl-N-(2-(5-cyclobutyl-1,2,4-oxadiazol-3-yl)ethyl)-13-isobutyl-12-methyl-7,11,14,20-tetraoxo-7,8,9,10,11,12,13,14,17,18,19,19a,20,21,22,23-hexadecahydro-16H-pyrido[2′,1′:6,7][1]oxa[4,7,10,14]tetraazacycloheptadecino[17,16-c]quinoline-9-carboxamide]
406 nM	264%	Cc1cn(C)nc1CCNC(=O)[C@@H]1CC(=O)N(C)[C@@H](CC(C)C)C(=O)N2CCCC[C@@H]2C(=O)N[C@H](Cc2ccccc2)COc2cnc3ccccc3c2C(=O)N1 [Example 129, (9S,13S,19aR,22R)-22-benzyl-N-(2-(1,4-dimethyl-1H-pyrazol-3-yl)ethyl)-13-isobutyl-12-methyl-7,11,14,20-tetraoxo-7,8,9,10,11,12,13,14,17,18,19,19a,20,21,22,23-hexadecahydro-16H-pyrido[2′,11:6,7][1]oxa[4,7,10,14]tetraazacycloheptadecino[17,16-c]quinoline-9-carboxamide]
1000 nM	264%	COc1cccc(-c2noc(CCNC(=O)[C@@H]3CC(=O)N(C)[C@@H](CC(C)C)C(=O)N4CCOC[C@@H]4C(=O)N[C@H](Cc4ccccc4)COc4cnc5ccccc5c4C(=O)N3)n2)c1 [Example 130, (9S,13S,19aR,22R)-22-benzyl-13-isobutyl-N-(2-(3-(3-methoxyphenyl)-1,2,4-oxadiazol-5-yl)ethyl)-12-methyl-7,11,14,20-tetraoxo-7,8,9,10,11,12,13,14,16,17,19,19a,20,21,22,23-hexadecahydro-[1,4]oxazino[3′,4′:6,7][1]oxa[4,7,10,14]tetraazacycloheptadecino[17,16-c]quinoline-9-carboxamide]
149 nM	213%	CC(C)C[C@H]1C(=O)N(C)C2(CC2)C(=O)N[C@H](Cc2ccccc2)COc2cnc3ccc(F)cc3c2C(=O)N[C@H](C(=O)NCCc2ccc(-c3cnccn3)cc2)CC(=O)N1C [Example 133, (3′S,7′S,13′R)-13′-benzyl-20′-fluoro-7′-isobutyl-6′,9′-dimethyl-1′,5′,8′,11′-tetraoxo-N-(4-(pyrazin-2-yl)phenethyl)-2′,3′,4′,5′,6′,7′,8′,9′,11′,12′,13′,14′-dodecahydro-1′H-spiro[cyclopropane-1,10′-[1]oxa[4,7,10,14]tetraazacycloheptadecino[17,16-c]quinoline]-3′-carboxamide]
506 nM	150%	CC(C)C[C@H]1C(=O)N(C)C2(CC2)C(=O)N[C@H](Cc2ccccc2)COc2cnc3ccc(F)cc3c2C(=O)N[C@H](C(=O)NCCc2cccc(-c3cnccn3)c2)CC(=O)N1C [Example 134, (3′S,7′S,13′R)-13′-benzyl-20′-fluoro-7′-isobutyl-6′,9′-dimethyl-1′,5′,8′,11′-tetraoxo-N-(3-(pyrazin-2-yl)phenethyl)-2′,3′,4′,5′,6′,7′,8′,9′,11′,12′,13′,14′-dodecahydro-1′H-spiro[cyclopropane-1,10′-[1]oxa[4,7,10,14]tetraazacycloheptadecino[17,16-c]quinoline]-3′-carboxamide]
177 nM	255%	CC(C)C[C@H]1C(=O)N(C)C2(CC2)C(=O)N[C@H](Cc2ccccc2)COc2cnc3ccc(F)cc3c2C(=O)N[C@H](C(=O)NCCc2ccc(-n3nccn3)cc2)CC(=O)N1C [Example 135, (3′S,7′S,13′R)-N-(4-(2H-1,2,3-triazol-2-yl)phenethyl)-13′-benzyl-20′-fluoro-7′-isobutyl-6′,9′-dimethyl-1′,5′,8′,11′-tetraoxo-2′,3′,4′,5′,6′,7′,8′,9′,11′,12′,13′,14′-dodecahydro-1′H-spiro[cyclopropane-1,10′-[1]oxa[4,7,10,14]tetraazacycloheptadecino[17,16-c]quinoline]-3′-carboxamide]
270 nM	271%	CC(C)C[C@H]1C(=O)N(C)C2(CC2)C(=O)N[C@H](Cc2ccccc2)COc2cnc3ccc(F)cc3c2C(=O)N[C@H](C(=O)NCCc2cccc(-n3nccn3)c2)CC(=O)N1C [Example 136, (3′S,7′S,13′R)-N-(3-(2H-1,2,3-triazol-2-yl)phenethyl)-13′-benzyl-20′-fluoro-7′-isobutyl-6′,9′-dimethyl-1′,5′,8′,11′-tetraoxo-2′,3′,4′,5′,6′,7′,8′,9′,11′,12′,13′,14′-dodecahydro-1′H-spiro[cyclopropane-1,10′-[1]oxa[4,7,10,14]tetraazacycloheptadecino[17,16-c]quinoline]-3′-carboxamide]
254 nM	311%	CC(C)C[C@H]1C(=O)N(C)C2(CC2)C(=O)N[C@H](Cc2ccccc2)COc2cnc3ccc(F)cc3c2C(=O)N[C@H](C(=O)NCCc2ccc(-c3ncccn3)cc2)CC(=O)N1C [Example 137, (3′S,7′S,13′R)-13′-benzyl-20′-fluoro-7′-isobutyl-6′,9′-dimethyl-1′,5′,8′,11′-tetraoxo-N-(4-(pyrimidin-2-yl)phenethyl)-2′,3′,4′,5′,6′,7′,8′,9′,11′,12′,13′,14′-dodecahydro-1′H-spiro[cyclopropane-1,10′-[1]oxa[4,7,10,14]tetraazacycloheptadecino[17,16-c]quinoline]-3′-carboxamide]

Structure (SMILES)	EC50	Emax
COc1cccc(CCNC(=O)[C@@H]2CC(=O)N(C)[C@@H](CC(C)C)C(=O)N(C)C3(CC3)C(=O)N[C@H](Cc3ccccc3)COc3cnc4ccc(F)cc4c3C(=O)N2)c1 [Example 131, (3′S,7′S,13′R)-13′-benzyl-20′-fluoro-7′-isobutyl-N-(3-methoxyphenethyl)-6′,9′-dimethyl-1′,5′,8′,11′-tetraoxo-2′,3′,4′,5′,6′,7′,8′,9′,11′,12′,13′,14′-dodecahydro-1′H-spiro[cyclopropane-1,10′-[1]oxa[4,7,10,14]tetraazacycloheptadecino[17,16-c]quinoline]-3′-carboxamide]	127 nM	320%
CC(C)C[C@H]1C(=O)N(C)C2(CC2)C(=O)N[C@H](Cc2ccccc2)COc2cnc3ccc(F)cc3c2C(=O)N[C@H](C(=O)NCCc2c(F)cccc2F)CC(=O)N1C [Example 132, (3′S,7′S,13′R)-13′-benzyl-N-(2,6-difluorophenethyl)-20′-fluoro-7′-isobutyl-6′,9′-dimethyl-1′,5′,8′,11′-tetraoxo-2′,3′,4′,5′,6′,7′,8′,9′,11′,12′,13′,14′-dodecahydro-1′H-spiro[cyclopropane-1,10′-[1]oxa[4,7,10,14]tetraazacycloheptadecino[17,16-c]quinoline]-3′-carboxamide]	110 nM	313%
